Experimental data as given in patent publication EP0324390A2, “Nigericin derivatives, method for their preparation, compositions containing them and use of these compositions” (priority 1988, dated 1989).
Values after ≈ are worked out from the molar mass of the structure shown.

Columns and labels:
Format in all cases: cell-based
[1] = system: Testviren; assay: Antiviral activity in cell culture (CPE, HeLa or Vero cells); conditions: cell cultures infected with test viruses; qualitative statement
[2] = system: Strept. faecium (D); assay: Agar dilution test according to Lorian (antibacterial activity)
Protocol: (§1) Die antibakterielle Wirksamkeit der erfindungsgemäßen Verbindungen wurde im Agar-Verdünnungstest nach Lorian (Antibiotics in Laboratory Medicine, Williams & Wilkins, Baltimore/London, 1980) bestimmt. Dabei wurden die Präparate in einer geometrischen Verdünnungsreihe mit dem Faktor 2 in Müller Hinton Agar verdünnt. Eine Petrischale enthielt nur Müller Hinton Agar und diente zur Kontrolle des Bakterienwachstums. Die Petrischalen wurden dann mit einem Denley-Multipoint-Inokulator, welcher 0,6 ul einer 1 : 100 verdünnten 18-Stunden-Kultur der Testbakterien übertrug, mit den entsprechenden Testbakterien beimpft. Nach 16 bis 18 Stunden Inkubation bei 37^. C wurden die Petrischalen makroskopisch auf Bakterienwachstum untersucht.
(§2) Die niedrigste Konzentration der erfindungsgemäßen Verbindungen, welche das Bakterienwachstum noch vollständig verhinderte, wurde als MIC (Minimum Inhibitory Concentration) angenommen.
(§3) In Tabelle 4 ist die Wirkung (Angabe des MIC in µg/ml) von verschiedenen erfindungsgemäßen Verbindungen gegen folgende Bakterien aufgeführt: • Staph. aureus (SG 511), Staph. aureus (285), Staph. aureus (503), Strept. pyogenes (308 A), Strept pyogenes (77 A), Strept. faecium (D).

[3] = system: Strept. pyogenes (308 A); assay: as above
Protocol: as §1, §2, §3

[4] = system: Staph. aureus (SG 511); assay: as above
Protocol: as §1, §2, §3

[5] = system: Staph. aureus (285); assay: as above
Protocol: as §1, §2, §3

[6] = system: Staph. aureus (503); assay: as above
Protocol: as §1, §2, §3

[7] = system: Strept. pyogenes (77 A); assay: as above
Protocol: as §1, §2, §3

[8] = system: E. coli; assay: Antibacterial activity against gram-negative bacteria; conditions: Escherichia coli, read-out: MHK
Protocol: as §1, §2
(§4) Überraschend zeigen die Dicarbonsäure-Addukte des Nigericins auch eine Wirkung gegen gramnegative Bakterien. So besitzt beispielsweise die Substanz aus Beispiel 32 gegen E. coli eine MHK von 0,55 µg/ml, gegen E. coli (DC 2) eine MHK von 25,0 µg/ml und gegen Entrob. Cloacae (1321 E) eine MHK von 250 µg/ml.

[9] = system: Entrob. Cloacae (1321 E); assay: as above; conditions: Enterobacter cloacae, read-out: MHK
Protocol: as §1, §2, §4

[10] = system: E. coli (DC 2); assay: as above; conditions: Escherichia coli, read-out: MHK
Protocol: as §1, §2, §4

[11] = Müller Hinton Agar, 16 to 18 h at 37 C, lowest concentration fully preventing growth

SMILES	antivirale Wirkung [1]	MIC [2, 11]	MIC [3, 11]	MIC [4, 11]	MIC [5, 11]	MIC [6, 11]	MIC [7, 11]	MIC ([2]; Enterococcus faecium) [µg/mL]	MIC ([3]; Streptococcus pyogenes) [µg/mL]	MIC ([4]; Staphylococcus aureus) [µg/mL]	MIC ([5]; Staphylococcus aureus) [µg/mL]	MIC ([6]; Staphylococcus aureus) [µg/mL]	MIC ([7]; Streptococcus pyogenes) [µg/mL]	MIC [8] [µg/mL]	MIC [9] [µg/mL]	MIC [10] [µg/mL]
CO[C@@H]1C[C@@H](C[C@H]2CC[C@H](C)[C@H]([C@@H](C)C(=O)O)O2)O[C@]2(O[C@](C)([C@H]3CC[C@@](C)([C@@H]4O[C@@H]([C@H]5O[C@@](O)(CO)[C@H](C)C[C@@H]5C)C[C@@H]4C)O3)C[C@H]2C)[C@@H]1C [Beispiel 1, Nigericin]	ausgezeichnete antivirale Wirkung	–	–	–	–	–	–	–	–	–	–	–	–	–	–	–
COC1CC(CC2CCC(C)C(C(C)C(=O)O)O2)OC2(OC(C)(C3CCC(C)(C4OC(C5OC(O)(COC(=O)c6ccco6)C(C)CC5C)CC4C)O3)CC2C)C1C (centres unmarked) [Beispiel 8]	–	0,391 µg/ml	0,013 µg/ml	0,195 µg/ml	0,391 µg/ml	0,195 µg/ml	0,013 µg/ml	–	–	–	–	–	–	–	–	–
COC1CC(CC2CCC(C)C(C(C)C(=O)O)O2)OC2(OC(C)(C3CCC(C)(C4OC(C5OC(O)(COC(=O)c6cccs6)C(C)CC5C)CC4C)O3)CC2C)C1C (centres unmarked) [Beispiel 9]	–	0,195 µg/ml	0,007 µg/ml	0,049 µg/ml	0,195 µg/ml	0,049 µg/ml	0,007 µg/ml	–	–	–	–	–	–	–	–	–
CCCCCCCCCCCC(=O)OCC1(O)OC(C2CC(C)C(C3(C)CCC(C4(C)CC(C)C5(OC(CC6CCC(C)C(C(C)C(=O)O)O6)CC(OC)C5C)O4)O3)O2)C(C)CC1C (centres unmarked) [Beispiel 10]	–	6,25 µg/ml	0,781 µg/ml	6,25 µg/ml	6,25 µg/ml	3,13 µg/ml	0,781 µg/ml	–	–	–	–	–	–	–	–	–
COC1CC(CC2CCC(C)C(C(C)C(=O)O)O2)OC2(OC(C)(C3CCC(C)(C4OC(C5OC(O)(COC(=O)CCC(=O)O)C(C)CC5C)CC4C)O3)CC2C)C1C (centres unmarked) [Beispiel 11]	–	0,391 µg/ml	0,025 µg/ml	0,391 µg/ml	0,195 µg/ml	0,098 µg/ml	0,025 µg/ml	–	–	–	–	–	–	–	–	–
COC1CC(CC2CCC(C)C(C(C)C(=O)O)O2)OC2(OC(C)(C3CCC(C)(C4OC(C5OC(O)(COC(=O)Nc6ccccc6)C(C)CC5C)CC4C)O3)CC2C)C1C (centres unmarked) [Beispiel 12]	–	1,56 µg/ml	0,098 µg/ml	0,781 µg/ml	3,13 µg/ml	0,78 µg/ml	0,098 µg/ml	–	–	–	–	–	–	–	–	–
COC1CC(CC2CCC(C)C(C(C)C(=O)O)O2)OC2(OC(C)(C3CCC(C)(C4OC(C5OC(O)(COC(=O)NCc6ccccc6)C(C)CC5C)CC4C)O3)CC2C)C1C (centres unmarked) [Beispiel 13]	–	12,5 µg/ml	0,78 µg/ml	3,13 µg/ml	6,25 µg/ml	3,13 µg/ml	0,39 µg/ml	–	–	–	–	–	–	–	–	–
COC1CC(CC2CCC(C)C(C(C)C(=O)O)O2)OC2(OC(C)(C3CCC(C)(C4OC(C5OC(O)(COC(=O)Nc6ccc(Cl)cc6)C(C)CC5C)CC4C)O3)CC2C)C1C (centres unmarked) [Beispiel 14]	–	100,0 µg/ml	25,0 µg/ml	100,0 µg/ml	100,0 µg/ml	50,0 µg/ml	12,5 µg/ml	–	–	–	–	–	–	–	–	–
COC1CC(CC2CCC(C)C(C(C)C(=O)O)O2)OC2(OC(C)(C3CCC(C)(C4OC(C5OC(O)(COS(=O)(=O)O)C(C)CC5C)CC4C)O3)CC2C)C1C (centres unmarked) [Beispiel 15]	–	3,13 µg/ml	1,56 µg/ml	1,56 µg/ml	1,56 µg/ml	0,78 µg/ml	0,78 µg/ml	–	–	–	–	–	–	–	–	–
COC1CC(CC2CCC(C)C(C(C)C(=O)O)O2)OC2(OC(C)(C3CCC(C)(C4OC(C5OC(CO)(OC)C(C)CC5C)CC4C)O3)CC2C)C1C (centres unmarked) [Beispiel 16]	–	3,13 µg/ml	0,39 µg/ml	1,56 µg/ml	1,56 µg/ml	1,56 µg/ml	0,39 µg/ml	–	–	–	–	–	–	–	–	–
CCOC1(CO)OC(C2CC(C)C(C3(C)CCC(C4(C)CC(C)C5(OC(CC6CCC(C)C(C(C)C(=O)O)O6)CC(OC)C5C)O4)O3)O2)C(C)CC1C (centres unmarked) [Beispiel 17]	–	1,56 µg/ml	0,098 µg/ml	1,56 µg/ml	1,56 µg/ml	0,78 µg/ml	0,098 µg/ml	–	–	–	–	–	–	–	–	–
COC1CC(CC2CCC(C)C(C(C)C(=O)O)O2)OC2(OC(C)(C3CCC(C)(C4OC(C5OC(COS(C)(=O)=O)(OC)C(C)CC5C)CC4C)O3)CC2C)C1C (centres unmarked) [Beispiel 20]	–	–	–	–	–	–	–	25 (≈ 30.6 µM)	6.25 (≈ 7.65 µM)	25 (≈ 30.6 µM)	25 (≈ 30.6 µM)	12.5 (≈ 15.3 µM)	6.25 (≈ 7.65 µM)	–	–	–
COC1CC(CC2CCC(C)C(C(C)C(=O)O)O2)OC2(OC(C)(C3CCC(C)(C4OC(C5OC(O)(COC(=O)C=C(C)C(=O)O)C(C)CC5C)CC4C)O3)CC2C)C1C (centres unmarked) [Beispiel 22]	–	–	–	–	–	–	–	6.25 (≈ 7.47 µM)	0.78 (≈ 0.932 µM)	6.25 (≈ 7.47 µM)	6.25 (≈ 7.47 µM)	6.25 (≈ 7.47 µM)	0.78 (≈ 0.932 µM)	–	–	–
CCCCCCCCCCCCCCCCCCCCCC(=O)OCC1(O)OC(C2CC(C)C(C3(C)CCC(C4(C)CC(C)C5(OC(CC6CCC(C)C(C(C)C(=O)O)O6)CC(OC)C5C)O4)O3)O2)C(C)CC1C (centres unmarked) [Beispiel 30]	–	–	–	–	–	–	–	100 (≈ 95.5 µM)	25 (≈ 23.9 µM)	100 (≈ 95.5 µM)	100 (≈ 95.5 µM)	50 (≈ 47.7 µM)	25 (≈ 23.9 µM)	–	–	–
COC1CC(CC2CCC(C)C(C(C)C(=O)O)O2)OC2(OC(C)(C3CCC(C)(C4OC(C5OC(O)(COC(=O)CCCC(=O)O)C(C)CC5C)CC4C)O3)CC2C)C1C (centres unmarked) [Beispiel 32]	–	–	–	–	–	–	–	0.39 (≈ 0.465 µM)	–	0.39 (≈ 0.465 µM)	0.39 (≈ 0.465 µM)	0.39 (≈ 0.465 µM)	–	0.55 (≈ 0.655 µM)	250 (≈ 298 µM)	25 (≈ 29.8 µM)
COC1CC(CC2CCC(C)C(C(C)C(=O)[O-])O2)OC2(OC(C)(C3CCC(C)(C4OC(C5OC(O)(CO)C(C)CC5C)CC4C)O3)CC2C)C1C.[K+] (centres unmarked) [Beispiel 34]	–	0,098 µg/ml	< 0,002 µg/ml	0,025 µg/ml	0,025 µg/ml	< 0,002 µg/ml	< 0,002 µg/ml	–	–	–	–	–	–	–	–	–
COC1CC(CC2CCC(C)C(C(C)C(=O)[O-])O2)OC2(OC(C)(C3CCC(C)(C4OC(C5OC(O)(COC(=O)CCC(=O)[O-])C(C)CC5C)CC4C)O3)CC2C)C1C.[Mg+2] (centres unmarked) [Beispiel 37]	–	0,098 µg/ml	0,007 µg/ml	0,098 µg/ml	0,098 µg/ml	0,049 µg/ml	0,007 µg/ml	–	–	–	–	–	–	–	–	–
